As a reminder, the IC50 is the concentration needed to halve the response being measured.

Molecules are shown by their SMILES.

Our source for the IC50 values is patent US20250346585A1 (Alexion Pharmaceuticals, Inc., priority 2022, published 2025).

In this test the target is Human complement C1s enzyme (Homo sapiens (Human), UniProt P09871). Briefly: Human C1s enzyme assay. Format: biochemical. The settings on record: Human C1s enzyme assay of Example 3; read-out: IC50 (Stars). The method, boiled down: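 IC50 derived by nonlinear regression of rate versus concentration, with rate taken from A405 kinetics (30 s intervals, 30 min) after adding 100 μM each Z-L-Lys-SBzl and DTNB. C1s from human serum, 1.16 nM, exposed to compound for 5 min at RT beforehand; buffer 50 mM Tris, 1 M NaCl, pH 7.5.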
Chain of Human complement C1s enzyme (P09871 438-688 limits assumed): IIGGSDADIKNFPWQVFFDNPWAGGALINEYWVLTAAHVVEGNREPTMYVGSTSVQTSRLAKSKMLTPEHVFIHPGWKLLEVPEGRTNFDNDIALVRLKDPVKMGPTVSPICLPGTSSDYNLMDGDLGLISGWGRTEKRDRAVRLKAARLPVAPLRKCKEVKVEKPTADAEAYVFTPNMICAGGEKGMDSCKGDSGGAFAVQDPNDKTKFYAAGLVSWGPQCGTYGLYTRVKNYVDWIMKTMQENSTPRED
Chain of Human complement C1s enzyme (P09871 16-437 partner limits assumed): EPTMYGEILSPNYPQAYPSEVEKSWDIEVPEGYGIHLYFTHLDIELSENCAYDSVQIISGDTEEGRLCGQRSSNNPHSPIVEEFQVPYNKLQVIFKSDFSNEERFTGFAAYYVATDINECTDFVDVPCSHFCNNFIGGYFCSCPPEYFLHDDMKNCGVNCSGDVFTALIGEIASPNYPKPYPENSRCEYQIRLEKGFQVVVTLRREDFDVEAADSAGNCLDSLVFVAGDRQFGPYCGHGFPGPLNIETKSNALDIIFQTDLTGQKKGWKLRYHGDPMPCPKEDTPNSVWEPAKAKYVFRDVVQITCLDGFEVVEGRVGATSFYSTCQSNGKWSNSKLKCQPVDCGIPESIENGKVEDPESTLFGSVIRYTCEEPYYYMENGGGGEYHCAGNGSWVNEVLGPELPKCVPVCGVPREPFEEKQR
Turning to `C[C@@H](NC(=O)[C@@H]1C[C@]2(COCCN)C[C@@H]2N1C(=O)CNC(=O)c1ccc(Oc2ccc(F)cc2)cc1)c1cc(C(=N)N)cs1` [Compound 69, (1S,3S,5R)-5-((2-aminoethoxy)methyl)-N—((R)-1-(4-carbamimidoylthiophen-2-yl)ethyl)-2-((4-(4-fluorophenoxy)benzoyl)glycyl)-2-azabicyclo[3.1.0]hexane-3-carboxamide], the IC50 is under 100 nM. Regarding `CO[C@@H]1C[C@@H](C(=O)N[C@H](C)c2cc(C(=N)N)cs2)N(C(=O)CNC(=O)c2ccc(Oc3ccc(F)cc3)cc2)C1` [Compound 70, (2S,4R)—N—((R)-1-(4-carbamimidoylthiophen-2-yl)ethyl)-1-((4-(4-fluorophenoxy)benzoyl)glycyl)-4-methoxypyrrolidine-2-carboxamide], the IC50 was under 100 nM. As for `CO[C@@H]1C[C@@H](C(=O)N[C@H](C)c2cc(C(=N)N)cs2)N(C(=O)CNC(=O)c2ccc3c(c2)-c2ccccc2C3(F)F)C1` [Compound 71, (2S,4R)—N—((R)-1-(4-carbamimidoylthiophen-2-yl)ethyl)-1-((9,9-difluoro-9H-fluorene-3-carbonyl)glycyl)-4-methoxypyrrolidine-2-carboxamide], the IC50 is under 100 nM.

With `COC[C@@]12C[C@@H]1N(C(=O)CNC(=O)c1ccc3c(c1)-c1ccccc1C3(F)F)[C@H](C(=O)N[C@H](C)c1cc(C(=N)N)cs1)C2` [Compound 72, (1S,3S,5R)—N—((R)-1-(4-carbamimidoylthiophen-2-yl)ethyl)-2-((9,9-difluoro-9H-fluorene-3-carbonyl)glycyl)-5-(methoxymethyl)-2-azabicyclo[3.1.0]hexane-3-carboxamide], the IC50 is under 100 nM. On to `N=C(N)c1csc(CNC(=O)[C@@H]2CC3(CN2C(=O)CNC(=O)c2ccc(-c4ccc(F)cc4)cc2)OCCO3)c1` [Compound 73, (S)—N-((4-carbamimidoylthiophen-2-yl)methyl)-7-((4′-fluoro-[1,1′-biphenyl]-4-carbonyl)glycyl)-1,4-dioxa-7-azaspiro[4.4]nonane-8-carboxamide], for which the IC50 was under 100 nM. With `N=C(N)c1csc(CNC(=O)[C@@H]2CC3(CN2C(=O)CNC(=O)c2ccc(Oc4ccccc4)cc2F)OCCO3)c1` [Compound 74, (S)—N-((4-carbamimidoylthiophen-2-yl)methyl)-7-((2-fluoro-4-phenoxybenzoyl)glycyl)-1,4-dioxa-7-azaspiro[4.4]nonane-8-carboxamide], the 50% inhibitory concentration (IC50) was under 100 nM. Next, `O=C(NCC(=O)N1CC2(C[C@H]1C(=O)NCc1cc(Br)cs1)OCCO2)c1ccc(Oc2ccc(F)cc2)cc1` [Compound 75, (S)—N-((4-bromothiophen-2-yl)methyl)-7-((4-(4-fluorophenoxy)benzoyl)glycyl)-1,4-dioxa-7-azaspiro[4.4]nonane-8-carboxamide]: over 1000 nM; `O=C(NCC(=O)N1CC2(C[C@H]1C(=O)NCc1cc(-c3cc(C(F)(F)F)[nH]n3)cs1)OCCO2)c1ccc(Oc2ccc(F)cc2)cc1` [Compound 76, (S)-7-((4-(4-fluorophenoxy)benzoyl)glycyl)-N-((4-(5-(trifluoromethyl)-1H-pyrazol-3-yl)thiophen-2-yl)methyl)-1,4-dioxa-7-azaspiro[4.4]nonane-8-carboxamide]: over 1000 nM. Next, `N=C(N)c1csc(CNC(=O)[C@@H]2CC3(CN2C(=O)CNC(=O)c2ccc(-c4ccccc4)cc2)OCCO3)c1` [Compound 77, (S)-7-(([1,1′-biphenyl]-4-carbonyl)glycyl)-N-((4-carbamimidoylthiophen-2-yl)methyl)-1,4-dioxa-7-azaspiro[4.4]nonane-8-carboxamide]: under 100 nM. `C[C@@H](NC(=O)[C@@H]1CC2(CN1C(=O)CNC(=O)c1ccc3cc4ccccc4cc3c1)OCCO2)c1cc(C(=N)N)cs1` [Compound 78, (S)-7-((anthracene-2-carbonyl)glycyl)-N—((R)-1-(4-carbamimidoylthiophen-2-yl)ethyl)-1,4-dioxa-7-azaspiro[4.4]nonane-8-carboxamide]: the IC50 is under 100 nM. Consider `C[C@@H](NC(=O)[C@@H]1C[C@@H](c2ccccc2)CN1C(=O)CNC(=O)c1ccc2c(c1)-c1ccccc1C2(F)F)c1cc(C(=N)N)cs1` [Compound 81, (2S,4S)—N—((R)-1-(4-carbamimidoylthiophen-2-yl)ethyl)-1-((9,9-difluoro-9H-fluorene-3-carbonyl)glycyl)-4-phenylpyrrolidine-2-carboxamide], for which the IC50 is under 100 nM. For the compound `C[C@@H](NC(=O)[C@@H]1CC2(CN1C(=O)CNC(=O)c1ccc(C(F)(F)c3ccccc3)cc1)OCCO2)c1cc(C(=N)N)cs1` [Compound 82, (S)—N—((R)-1-(4-carbamimidoylthiophen-2-yl)ethyl)-7-((4-(difluoro(phenyl)methyl)benzoyl)glycyl)-1,4-dioxa-7-azaspiro[4.4]nonane-8-carboxamide], the IC50 was under 100 nM. `N=C(N)c1csc(CNC(=O)[C@@H]2CC3(CN2C(=O)CNC(=O)c2ccc(-c4ccccc4)cc2F)OCCO3)c1` [Compound 83, (S)—N-((4-carbamimidoylthiophen-2-yl)methyl)-7-((3-fluoro-[1,1′-biphenyl]-4-carbonyl)glycyl)-1,4-dioxa-7-azaspiro[4.4]nonane-8-carboxamide]: the concentration for half-maximal inhibition (IC50) was under 100 nM. On to `C[C@H](O)[C@H](O)[C@@H](O)[C@@H](O)CNCC(=O)NCCOC[C@@]12C[C@@H]1N(C(=O)CNC(=O)c1ccc(Oc3ccc(F)cc3)cc1)[C@H](C(=O)N[C@H](C)c1cc(C(=N)N)cs1)C2` [Compound 84, (1S,3S,5R)—N—((R)-1-(4-carbamimidoylthiophen-2-yl)ethyl)-2-((4-(4-fluorophenoxy)benzoyl)glycyl)-5-((2-(2-(((2S,3S,4S,5S)-2,3,4,5-tetrahydroxyhexyl)amino)acetamido)ethoxy)methyl)-2-azabicyclo[3.1.0]hexane-3-carboxamide], for which the IC50 was under 100 nM. Next, `C[C@@H](NC(=O)[C@@H]1CC2(CN1C(=O)CNC(=O)c1ccc(Oc3ccc(F)cc3)cc1)OCCO2)c1ccc(C(=N)N)s1` [Compound 85, (S)—N—((R)-1-(5-carbamimidoylthiophen-2-yl)ethyl)-7-((4-(4-fluorophenoxy)benzoyl)glycyl)-1,4-dioxa-7-azaspiro[4.4]nonane-8-carboxamide]: under 100 nM. Next, `C[C@@H](NC(=O)[C@@H]1C[C@@H](OC(F)F)CN1C(=O)CNC(=O)c1ccc(Oc2ccc(F)cc2)cc1)c1cc(-c2ncc[nH]2)cs1` [Compound 86, (2S,4R)—N—((R)-1-(4-(1H-imidazol-2-yl)thiophen-2-yl)ethyl)-4-(difluoromethoxy)-1-((4-(4-fluorophenoxy)benzoyl)glycyl)pyrrolidine-2-carboxamide]: under 100 nM; `C[C@@H](NC(=O)[C@@H]1CC2(CN1C(=O)CNC(=O)c1ccc3c(c1)-c1ccccc1C3(F)F)OCCO2)c1cc(-c2ncc[nH]2)cs1` [Compound 87, (S)—N—((R)-1-(4-(1H-imidazol-2-yl)thiophen-2-yl)ethyl)-7-((9,9-difluoro-9H-fluorene-3-carbonyl)glycyl)-1,4-dioxa-7-azaspiro[4.4]nonane-8-carboxamide]: under 100 nM. Next, `N=C(N)c1csc(CNC(=O)[C@@H]2CC3(CN2C(=O)CNC(=O)c2ccc4c(c2)-c2ccccc2C4=O)OCCO3)c1` [Compound 88, (S)—N-((4-carbamimidoylthiophen-2-yl)methyl)-7-((9-oxo-9H-fluorene-3-carbonyl)glycyl)-1,4-dioxa-7-azaspiro[4.4]nonane-8-carboxamide]: under 100 nM. Take `C[C@H](O)[C@H](O)[C@@H](O)[C@@H](O)CNCC(=O)NCCOC[C@@]12C[C@@H]1N(C(=O)CNC(=O)c1ccc3c(c1)-c1ccccc1C3(F)F)[C@H](C(=O)N[C@H](C)c1cc(C(=N)N)cs1)C2` [Compound 89, (1S,3S,5R)—N—((R)-1-(4-carbamimidoylthiophen-2-yl)ethyl)-2-((9,9-difluoro-9H-fluorene-3-carbonyl)glycyl)-5-((2-(2-(((2S,3S,4S,5S)-2,3,4,5-tetrahydroxyhexyl)amino)acetamido)ethoxy)methyl)-2-azabicyclo[3.1.0]hexane-3-carboxamide]: the half-inhibitory concentration (IC50) is under 100 nM.

In the case of `C[C@@H](NC(=O)[C@@H]1CC2(CN1C(=O)CNC(=O)c1ccc(-c3ccccc3)cc1)OCCO2)c1cc(C(=N)N)cs1` [Compound 90, (S)-7-(([1,1′-biphenyl]-4-carbonyl)glycyl)-N—((R)-1-(4-carbamimidoylthiophen-2-yl)ethyl)-1,4-dioxa-7-azaspiro[4.4]nonane-8-carboxamide], the IC50 was under 100 nM. Next, `C[C@@H](NC(=O)[C@@H]1CC2(CN1C(=O)CNC(=O)c1ccc3c(c1)-c1ccccc1C3(F)F)OCCO2)c1cc(-c2cncnc2)cs1` [Compound 91, (S)-7-((9,9-difluoro-9H-fluorene-3-carbonyl)glycyl)-N—((R)-1-(4-(pyrimidin-5-yl)thiophen-2-yl)ethyl)-1,4-dioxa-7-azaspiro[4.4]nonane-8-carboxamide]: over 1000 nM; `C[C@@H](NC(=O)[C@@H]1CC2(CN1C(=O)CNC(=O)c1ccc3c(c1)-c1ccccc1C3(F)F)OCCO2)c1cc(-c2nn[nH]n2)cs1` [Compound 92, (S)—N—((R)-1-(4-(2H-tetrazol-5-yl)thiophen-2-yl)ethyl)-7-((9,9-difluoro-9H-fluorene-3-carbonyl)glycyl)-1,4-dioxa-7-azaspiro[4.4]nonane-8-carboxamide]: over 1000 nM; `C[C@@H](NC(=O)[C@@H]1C[C@H](C2CCCCC2)CN1C(=O)CNC(=O)c1ccc(Oc2ccc(F)cc2)cc1)c1cc(C(=N)N)cs1` [Compound 93, (2S,4R)—N—((R)-1-(4-carbamimidoylthiophen-2-yl)ethyl)-4-cyclohexyl-1-((4-(4-fluorophenoxy)benzoyl)glycyl)pyrrolidine-2-carboxamide]: under 100 nM.

For the compound `C[C@@H](NC(=O)[C@@H]1CC2(CN1C(=O)CNC(=O)c1ccc3c(c1)-c1ccccc1C3(C)C)OCCO2)c1cc(C(=N)N)cs1` [Compound 94, (S)—N—((R)-1-(4-carbamimidoylthiophen-2-yl)ethyl)-7-((9,9-dimethyl-9H-fluorene-3-carbonyl)glycyl)-1,4-dioxa-7-azaspiro[4.4]nonane-8-carboxamide], the IC50 is under 100 nM.
